Measurements: patent US20240131173A1, “PROTACS WITH TRANSCRIPTION FACTOR TARGETING MOIETIES” (Beth Israel Deaconess Medical Center, Inc., priority 2021, published 2024)

Tests used:
p65 = p65 (Homo sapiens, UniProt Q04206); assay: In vivo ubiquitination assay of p65 (Ni-NTA pulldown); type: cell-based; details: HEK293T cells, Flag-p65 24 hours, then dNF-κB 12 hours
Method: Denatured in vivo ubiquitination assays were performed as previously described 41. Briefly, HEK293T cells were firstly transfected with Flag-p65 or HA-E2F1 for 24 hours, followed by additional transfection of individual TF-PROTAC for another 12 hours. Before been harvested, HEK293T cells were treated with 30 μM of MG132 for 4 hours. After having been harvested in denatured buffer A (6 M guanidine-HCI, pH 8.0, 0.1 M Na2HPO4/NaH2PO4, and 10 mM imidazole) and sonication for 10 seconds, cell lysis was incubation with Ni-nitrilotriacetic acid (NTA) matrices under rotation for 3 hours at room temperature. The pulldown products were washed sequentially twice in buffer A, twice in buffer A/TI mixture (buffer A, buffer TI=1:3, v/v), and once in buffer TI (25 mM tris-HCl, pH 6.8, and 20 mM imidazole). The ubiquitinated proteins were finally separated by 7% SDS-PAGE and blotted with individual antibody.

[1] = biological target: T1, VHL E3-PROTAC-p65 ternary complex (Homo sapiens, UniProt P40337+Q04206); assay: GST pulldown assay of VHL E3 ligase complex and p65 with TF-PROTAC; type: binding; details: GST-VHL complex from E. coli, HEK293T lysate with Flag-p65, in vitro
T1 construct: made in house; host or cells: E. coli BL21(DE3) for the GST-VHL/Elongin B/C complex; HEK293T lysate for Flag-p65
From the text: Furthermore, dNF-κB is capable of recruiting VHL E3 ubiquitin ligase to POI, NF-κB. […] However, dNF-κB obtained in current stage could not efficiently promote the degradation of p65 in cells, which prompted further optimization of the length of linker between the VHL ligand and DNA oligomer moieties for achieving efficient destruction of NF-κB in cells.
pGEX-GST-VHL/ElonginB construct was kindly gift from Dr. William Kaelin, Jr. at Dana-Farber Cancer Institute, Harvard Medical School. pGEX-GST-Elongin C plasmid was generated by subcloning Elongin C CDS into the BamHI and Xhol sites of pGEX-4T1-GST vector. The GST-VHL/ElonginB/C complex was purified as described 43. Briefly, BL21(DE3) E. coli was cotransfected with pGEX-GST-VHL/ElonginB and pGEX-GSTElonginC plasmid. Protein expression was induced by 100 μM isopropyl beta-D-thiogalactopyranoside (IPTG, Fisher Scientific) at 18° C.overnight. Then, the bacterial culture was centrifuged and sonicated in PBS buffer with protease inhibitor cocktail. Protein lysates were further purified with glutathione-Sepharose beads (GE17-0756-05) and washed with PBS for 5 times.
Glutathione-Sepharose beads loaded with GST-VHL E3 ligase complex were incubated at 4° C. with cell lysate derived from HEK293T cells that ectopic transfected with individual transfection factor. After incubation for 3 hours, TF-PROTACs were added into the mixture for another 2 hours, followed by wash with NETN buffer for 3 times. The pulldown products were further separated by 10% SDS-PAGE and blotted for indicated proteins.

T1 sequence (P40337 whole entry): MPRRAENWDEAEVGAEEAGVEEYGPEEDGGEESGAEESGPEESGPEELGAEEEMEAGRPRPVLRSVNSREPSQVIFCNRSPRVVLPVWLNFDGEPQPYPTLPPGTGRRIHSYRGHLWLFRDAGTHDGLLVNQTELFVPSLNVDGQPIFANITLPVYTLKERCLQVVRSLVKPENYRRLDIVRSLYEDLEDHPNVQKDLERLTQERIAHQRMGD
T1 sequence (Q15370 whole entry partner): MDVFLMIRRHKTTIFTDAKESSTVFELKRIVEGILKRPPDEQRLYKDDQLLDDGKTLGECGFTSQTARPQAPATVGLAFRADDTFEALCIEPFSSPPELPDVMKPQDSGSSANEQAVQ
T1 sequence (Q15369 whole entry partner): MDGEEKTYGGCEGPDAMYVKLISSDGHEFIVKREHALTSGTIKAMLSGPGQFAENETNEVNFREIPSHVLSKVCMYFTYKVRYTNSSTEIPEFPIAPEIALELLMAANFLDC
T1 sequence (Q04206 whole entry): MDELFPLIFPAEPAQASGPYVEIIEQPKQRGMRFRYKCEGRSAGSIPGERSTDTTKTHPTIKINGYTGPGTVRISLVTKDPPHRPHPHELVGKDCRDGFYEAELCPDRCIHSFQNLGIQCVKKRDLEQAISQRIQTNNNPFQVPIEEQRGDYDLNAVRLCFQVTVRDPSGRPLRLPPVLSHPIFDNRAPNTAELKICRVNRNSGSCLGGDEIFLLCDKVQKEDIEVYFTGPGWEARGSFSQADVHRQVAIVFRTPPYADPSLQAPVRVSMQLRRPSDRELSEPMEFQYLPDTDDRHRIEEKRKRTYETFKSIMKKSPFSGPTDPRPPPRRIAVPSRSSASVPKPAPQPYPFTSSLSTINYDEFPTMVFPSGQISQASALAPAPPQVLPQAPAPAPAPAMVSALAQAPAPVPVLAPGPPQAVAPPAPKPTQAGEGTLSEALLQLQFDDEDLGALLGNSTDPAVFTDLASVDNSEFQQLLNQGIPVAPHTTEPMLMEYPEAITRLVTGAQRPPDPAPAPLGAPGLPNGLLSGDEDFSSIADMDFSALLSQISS
Chain of p65 (Q04206 whole entry): as above

Substance: dNF-κB #16 (TGGGGACTTTCCAGTTTCTGGAAAGTCCCCA; decoy; VHL ligand conjugate via PEG3 linker, further chemistry not given here)
- ubiquitination of p65 in cells (p65): lead to the ubiquitination of p65 in cells
- VHL E3 ligase-p65 binding (ternary complex) induced by PROTAC [1]: recruited the binding between the VHL E3 ubiquitin ligase and p65 in vitro
